Measured values taken from paper PMC3587566, “The Ultra-Potent and Selective TLR8 Agonist VTX-294 Activates Human Newborn and Adult Leukocytes” (PLoS ONE, 2013).
Read-outs that look alike come from different tables or passages of the source.

What was measured:
Format in all cases: cell-based
human neonatal MoDCs = experiment: Neonatal monocyte-derived dendritic cell (MoDC) stimulation, TNF ELISA; conditions: 24 h
Description: Heparinized human newborn cord blood or adult peripheral blood was layered onto Ficoll-Hypaque gradients (Ficoll-Paque PREMIUM, GE Healthcare, Waukesha, WI) to collect CBMC or peripheral blood mononuclear cell layers (PBMC), respectively. Monocytes were isolated from mononuclear cell fractions by positive selection by magnetic microbeads according to the manufacturer’s instructions (Miltenyi Biotec, Auburn, CA) using CD14 or CD33 as a pan-marker for monocytes. Monocyte preparations were >95% pure as assessed by flow cytometry for CD14 as previously described. […] After 5–6 days, immature MoDCs (HLA-DR^+, CD14^−, DC-SIGN^+ as measured by flow cytometry) of >90% purity were harvested by gently pipetting only the loosely adherent fraction and re-plated (10^5 cells/well) in 96-well U-bottom plates in the presence or absence of TLR agonists.
Following TLR agonist stimulation, MoDCs were resuspended in staining buffer (1×PBS, 0.5% human serum albumin (HSA)) and stained for 30 min at 4°C in the dark (1.5×10^5/per staining) with fluorophore-labeled antibodies (FITC/HLA-DR and PE/CD86) (BD Biosciences). Cells were then centrifuged, washed, fixed (1% paraformaldehyde (PFA)) and filtered prior to flow cytometry analysis using a MoFlo Legacy cytometer (DakoCytomation, Fort Collins, CO) and analyzed using FlowJo software (Tree Star). […]

human newborn cord blood [1] = experiment: Newborn whole blood assay, TNF / IL-1β ELISA; conditions: mean, n = 4-9
human newborn cord blood [2] = experiment: Newborn whole blood assay, TNF / IL-1β ELISA; conditions: for Newborn WBA IL-1β / Newborn WBA TNF: baseline subtracted
Description: (§1) Peripheral blood was collected from healthy adult volunteers, while human newborn cord blood was collected immediately after Cesarean section delivery of the placenta. Births to HIV-positive mothers were excluded. Human experimentation guidelines of the U.S. Department of Health and Human Services, The Brigham & Women’s Hospital, and Boston Children’s Hospital were observed, following protocols approved by the local institutional review boards. Human blood was anti-coagulated with 15–20 units/ml pyrogen-free sodium heparin (American Pharmaceutical Partners, Inc., Schaumberg, IL). All blood products were kept at room temperature and processed within 4 hrs of collection.
(§2) For assessment of TLR agonist activity in whole blood, we used an adaptation of the method of Kollmann et al., [33]. […] Suspensions containing 200 µl/well were gently mixed by pipetting and incubated for 2–24 h at 37°C in a humidified incubator at 5% CO2. After culture, plates were centrifuged at 500×g and 110–150 µl of supernatant was carefully removed by pipetting without disturbing the cell pellet. Supernatants derived from human leukocyte stimulations were assayed by ELISA for TNF (BD Biosciences, San Jose, CA, USA) and IL-1β (eBiosciences, San Diego, CA). Additionally, WB supernatants were analysed by Multi-Analyte Profiling (MAP). Briefly, supernatant samples were frozen at −80°C and submitted to Myriad RBM (Austin, TX, USA) for screening with a modified Human InflammationMAP® v. 1.6 antigen panel, which analyzed the samples for the presence of 98 analytes associated with inflammation. The minimum threshold for each analyte was set at the minimum detectable dose for that particular assay (defined as three standard deviations above the mean background).
(§3) Compound concentrations are shown in µM, except for MPLA, which are shown in ng/ml. Data are shown as mean ± SEM of n = 5–8.

[3] = system: human adult peripheral blood; experiment: Adult whole blood assay, TNF / IL-1β ELISA; conditions: mean, n = 4-9; for EC50: Homo sapiens
[4] = system: human adult peripheral blood; experiment: Adult whole blood assay, TNF / IL-1β ELISA; conditions: baseline subtracted
Description: as §1, §2, §3

CCOCc1nc2c(N)nc3ccccc3c2n1CC(C)(C)O [R848]
lowest concentration inducing MoDC TNF production (human neonatal MoDCs; tested 0.1, 0.3, 10 µM): 10 µM | EC50 (human newborn cord blood [1]; Homo sapiens, read-out: Newborn WBA TNF EC50): 1500 nM | EC50 (human newborn cord blood [2]; Homo sapiens, mean, n = 4-9, read-out: Newborn WBA IL-1β EC50): 6.65 µM | Newborn WBA IL-1β (human newborn cord blood [2]; agonist 0.1 μM): 0 pg/mL | Newborn WBA TNF (human newborn cord blood [2]; agonist 0.1 μM): 0 pg/mL | Newborn WBA IL-1β (human newborn cord blood [2]; agonist 0.3 μM): 9 pg/mL | Newborn WBA TNF (human newborn cord blood [2]; agonist 0.3 μM): 0 pg/mL | Newborn WBA IL-1β (human newborn cord blood [2]; agonist 1 μM): 285 pg/mL | Newborn WBA TNF (human newborn cord blood [2]; agonist 1 μM): 2164 pg/mL | Newborn WBA IL-1β (human newborn cord blood [2]; agonist 10 μM): 7442 pg/mL | Newborn WBA TNF (human newborn cord blood [2]; agonist 10 μM): 33609 pg/mL | Newborn WBA IL-1β (human newborn cord blood [2]; agonist 100 μM): 10822 pg/mL | Newborn WBA TNF (human newborn cord blood [2]; agonist 100 μM): 20117 pg/mL | EC50 ([3]; read-out: Adult WBA IL-1β EC50): 1620 nM | EC50 ([3]; read-out: Adult WBA TNF EC50): 1040 nM | Adult WBA IL-1β ([4]; agonist 0.1 μM): 2 pg/mL | Adult WBA TNF ([4]; agonist 0.1 μM): 132 pg/mL | Adult WBA IL-1β ([4]; agonist 0.3 μM): 27 pg/mL | Adult WBA TNF ([4]; agonist 0.3 μM): 750 pg/mL | Adult WBA IL-1β ([4]; agonist 1 μM): 779 pg/mL | Adult WBA TNF ([4]; agonist 1 μM): 6661 pg/mL | Adult WBA IL-1β ([4]; agonist 10 μM): 4762 pg/mL | Adult WBA TNF ([4]; agonist 10 μM): 13913 pg/mL | Adult WBA IL-1β ([4]; agonist 100 μM): 4694 pg/mL | Adult WBA TNF ([4]; agonist 100 μM): 9982 pg/mL

monophosphoryl lipid A [MPLA]
lowest concentration inducing MoDC TNF production (p<0.05 vs unstimulated) (human neonatal MoDCs; tested 1, 10, 100 ng/ml): 10 ng/mL | Newborn WBA IL-1β EC50 (human newborn cord blood [1]): 11.48 ng/mL | Newborn WBA TNF EC50 (human newborn cord blood [1]): 14.57 ng/mL | Newborn WBA IL-1β (human newborn cord blood [2]; agonist 0.1 ng/ml): 0 pg/mL | Newborn WBA TNF (human newborn cord blood [2]; agonist 0.1 ng/ml): 0 pg/mL | Newborn WBA IL-1β (human newborn cord blood [2]; agonist 0.3 ng/ml): 0 pg/mL | Newborn WBA TNF (human newborn cord blood [2]; agonist 0.3 ng/ml): 11 pg/mL | Newborn WBA IL-1β (human newborn cord blood [2]; agonist 1 ng/ml): 24 pg/mL | Newborn WBA TNF (human newborn cord blood [2]; agonist 1 ng/ml): 29 pg/mL | Newborn WBA IL-1β (human newborn cord blood [2]; agonist 10 ng/ml): 682 pg/mL | Newborn WBA TNF (human newborn cord blood [2]; agonist 10 ng/ml): 642 pg/mL | Newborn WBA IL-1β (human newborn cord blood [2]; agonist 100 ng/ml): 1628 pg/mL | Newborn WBA TNF (human newborn cord blood [2]; agonist 100 ng/ml): 3665 pg/mL | Adult WBA IL-1β EC50 [3]: 1.59 ng/mL | Adult WBA TNF EC50 [3]: 12.59 ng/mL | Adult WBA IL-1β ([4]; agonist 0.1 ng/ml): 5 pg/mL | Adult WBA TNF ([4]; agonist 0.1 ng/ml): 128 pg/mL | Adult WBA IL-1β ([4]; agonist 0.3 ng/ml): 27 pg/mL | Adult WBA TNF ([4]; agonist 0.3 ng/ml): 33 pg/mL | Adult WBA IL-1β ([4]; agonist 1 ng/ml): 95 pg/mL | Adult WBA TNF ([4]; agonist 1 ng/ml): 215 pg/mL | Adult WBA IL-1β ([4]; agonist 10 ng/ml): 763 pg/mL | Adult WBA TNF ([4]; agonist 10 ng/ml): 3353 pg/mL | Adult WBA IL-1β ([4]; agonist 100 ng/ml): 3153 pg/mL | Adult WBA TNF ([4]; agonist 100 ng/ml): 9158 pg/mL
